# Test results from patent publication US12209087B2, “AKT1 modulators” (Alterome Therapeutics, Inc., priority 2022, dated 2025).
# Target: T1, full length AKT E17K (Homo sapiens, UniProt P31749, E17K)
# T1 construct: host or cells: HEK-293 (ATCC CRL-1573)
# Experiment: NanoBRET Target Engagement (TE) Assay
# Format: cell-based
# Conditions: competitive displacement of tracer in cells, read-out: AKT1 E17K IC50
# Outline: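 Compound and tracer incubated 2 h before luminescence at donor 450 nm and acceptor 600 nm, with extracellular signal inhibited. EC50 by sigmoidal variable-slope regression.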
# T1 sequence (P31749 whole entry E17K): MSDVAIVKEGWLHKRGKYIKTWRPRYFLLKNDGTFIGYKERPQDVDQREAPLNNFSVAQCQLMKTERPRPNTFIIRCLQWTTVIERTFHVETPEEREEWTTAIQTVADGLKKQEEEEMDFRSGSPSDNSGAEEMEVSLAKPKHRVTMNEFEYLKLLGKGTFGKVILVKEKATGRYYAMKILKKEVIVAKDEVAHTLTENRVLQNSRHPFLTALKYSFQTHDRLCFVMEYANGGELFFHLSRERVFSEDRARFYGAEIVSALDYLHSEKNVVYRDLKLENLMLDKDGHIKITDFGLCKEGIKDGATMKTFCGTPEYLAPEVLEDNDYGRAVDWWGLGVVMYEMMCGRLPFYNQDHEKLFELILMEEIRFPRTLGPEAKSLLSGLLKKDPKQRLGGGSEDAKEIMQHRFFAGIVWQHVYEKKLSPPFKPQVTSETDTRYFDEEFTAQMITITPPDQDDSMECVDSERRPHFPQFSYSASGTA
row,IC50 [nM],Compound
1,600 to 10000,"N#Cc1nccc(N2CCN(Cc3ccc(-n4c(-c5cccnc5N)nc5ccc(-c6ccc(=O)[nH]c6)nc54)cc3)CC2)n1 [Example 332, 4-(4-(4-(2-(2-Aminopyridin-3-yl)-5-(6-oxo-1,6-dihydropyridin-3-yl)-3H-imidazo[4,5-b]pyridin-3-yl)benzyl)piperazin-1-yl)pyrimidine-2-carbonitrile]"
2,15 to 60,"N#Cc1ccnc(N2CCN(Cc3ccc(-n4c(-c5cccnc5N)nc5ccc(-c6cccc(=O)[nH]6)nc54)cc3)CC2)n1 [Example 333, 2-(4-(4-(2-(2-Aminopyridin-3-yl)-5-(6-oxo-1,6-dihydropyridin-2-yl)-3H-imidazo[4,5-b]pyridin-3-yl)benzyl)piperazin-1-yl)pyrimidine-4-carbonitrile]"
3,15 to 60,"N#Cc1cc(N2CCN(Cc3ccc(-n4c(-c5cccnc5N)nc5ccc(-c6cccc(=O)[nH]6)nc54)cc3)CC2)ncn1 [Example 334, 6-(4-(4-(2-(2-Aminopyridin-3-yl)-5-(6-oxo-1,6-dihydropyridin-2-yl)-3H-imidazo[4,5-b]pyridin-3-yl)benzyl)piperazin-1-yl)pyrimidine-4-carbonitrile]"
4,< 15,"N#Cc1nccc(NC2CCN(Cc3ccc(-n4c(-c5cccnc5N)nc5ccc(-c6ccccc6C#N)nc54)cc3)CC2)n1 [Example 335, 4-((1-(4-(2-(2-Aminopyridin-3-yl)-5-(2-cyanophenyl)-3H-imidazo[4,5-b]pyridin-3-yl)benzyl)piperidin-4-yl)amino)pyrimidine-2-carbonitrile]"
5,< 15,"CN(C(=O)c1ccnc(C#N)n1)C1CCN(Cc2ccc(-n3c(-c4cccnc4N)nc4ccc(-c5ccccc5)nc43)cc2)CC1 [Example 336, N-(1-(4-(2-(2-aminopyridin-3-yl)-5-phenyl-3H-imidazo[4,5-b]pyridin-3-yl)benzyl)piperidin-4-yl)-2-cyano-N-methylpyrimidine-4-carboxamide]"
6,< 15,"N#Cc1ncnc(N[C@@H]2CCCN(Cc3ccc(-n4c(-c5cccnc5N)nc5ccc(-c6ccccc6)nc54)cc3)C2)n1 [Example 337, (R)-4-((1-(4-(2-(2-Aminopyridin-3-yl)-5-phenyl-3H-imidazo[4,5-b]pyridin-3-yl)benzyl)piperidin-3-yl)amino)-1,3,5-triazine-2-carbonitrile]"
7,15 to 60,"N#Cc1ncnc(N2C[C@@H]3C[C@H]2CN3Cc2ccc(-n3c(-c4cccnc4N)nc4ccc(-c5ccccc5)nc43)cc2)n1 [Example 338, 4-((1S,4S)-5-(4-(2-(2-Aminopyridin-3-yl)-5-phenyl-3H-imidazo[4,5-b]pyridin-3-yl)benzyl)-2,5-diazabicyclo[2.2.1]heptan-2-yl)-1,3,5-triazine-2-carbonitrile]"
8,15 to 60,"N#Cc1nccc(N2C[C@H]3CN(Cc4ccc(-n5c(-c6cccnc6N)nc6ccc(-c7ccccc7)nc65)cc4)C[C@H]3C2)n1 [Example 339, 4-((3aR,6aS)-5-(4-(2-(2-aminopyridin-3-yl)-5-phenyl-3H-imidazo[4,5-b]pyridin-3-yl)benzyl)hexahydropyrrolo[3,4-c]pyrrol-2(1H)-yl)pyrimidine-2-carbonitrile]"
9,< 15,"N#Cc1ncnc(N2C[C@H]3CN(Cc4ccc(-n5c(-c6cccnc6N)nc6ccc(-c7ccccc7)nc65)cc4)C[C@H]3C2)n1 [Example 340, 4-((3aR,6aS)-5-(4-(2-(2-Aminopyridin-3-yl)-5-phenyl-3H-imidazo[4,5-b]pyridin-3-yl)benzyl)hexahydropyrrolo[3,4-c]pyrrol-2(1H)-yl)-1,3,5-triazine-2-carbonitrile]"
10,< 15,"N#Cc1nccc(N2C[C@H]3CN(Cc4ccc(-n5c(-c6cccnc6N)nc6ccc(-c7ccccc7)nc65)cc4)C[C@@H]3C2)n1 [Example 341, 4-((3aR,6aR)-5-(4-(2-(2-aminopyridin-3-yl)-5-phenyl-3H-imidazo[4,5-b]pyridin-3-yl)benzyl)hexahydropyrrolo[3,4-c]pyrrol-2(1H)-yl)pyrimidine-2-carbonitrile]"

# The remaining lines, values behind:
row,Compound,IC50 [nM]
1,"N#Cc1nccc(NC2CCN(Cc3ccc(-n4c(-c5cccnc5N)nc5ccc(N6CCCNC(=O)C6)nc54)cc3)CC2)n1 [Example 318, 4-((1-(4-(2-(2-Aminopyridin-3-yl)-5-(3-oxo-1,4-diazepan-1-yl)-3H-imidazo[4,5-b]pyridin-3-yl)benzyl)piperidin-4-yl)amino)pyrimidine-2-carbonitrile]",15 to 60
2,"N#Cc1ccc(-c2ccc3nc(-c4cccnc4N)n(-c4ccc(CN5CCN(c6nccc(C#N)n6)CC5)cc4)c3n2)cc1 [Example 319, 2-(4-(4-(2-(2-Aminopyridin-3-yl)-5-(4-cyanophenyl)-3H-imidazo[4,5-b]pyridin-3-yl)benzyl)piperazin-1-yl)pyrimidine-4-carbonitrile]",60 to 600
3,"N#Cc1ccc(-c2ccc3nc(-c4cccnc4N)n(-c4ccc(CN5CCC(Nc6ccnc(C#N)n6)CC5)cc4)c3n2)cc1 [Example 320, 4-((1-(4-(2-(2-Aminopyridin-3-yl)-5-(4-cyanophenyl)-3H-imidazo[4,5-b]pyridin-3-yl)benzyl)piperidin-4-yl)amino)pyrimidine-2-carbonitrile]",< 15
4,"N#Cc1ccc(-c2ccc3nc(-c4cccnc4N)n(-c4ccc(CN5CCC(Nc6nccc(C#N)n6)CC5)cc4)c3n2)cc1 [Example 321, 2-((1-(4-(2-(2-Aminopyridin-3-yl)-5-(4-cyanophenyl)-3H-imidazo[4,5-b]pyridin-3-yl)benzyl)piperidin-4-yl)amino)pyrimidine-4-carbonitrile]",60 to 600
5,"N#Cc1ccnc(N2CCN(Cc3ccc(-n4c(-c5cccnc5N)nc5ccc(-c6ccccc6C#N)nc54)cc3)CC2)n1 [Example 322, 2-(4-(4-(2-(2-Aminopyridin-3-yl)-5-(2-cyanophenyl)-3H-imidazo[4,5-b]pyridin-3-yl)benzyl)piperazin-1-yl)pyrimidine-4-carbonitrile]",15 to 60
6,"N#Cc1nccc(NC2CCN(Cc3ccc(-n4c(-c5cccnc5N)nc5ccc(N6CCNC(=O)CC6)nc54)cc3)CC2)n1 [Example 323, 4-((1-(4-(2-(2-Aminopyridin-3-yl)-5-(5-oxo-1,4-diazepan-1-yl)-3H-imidazo[4,5-b]pyridin-3-yl)benzyl)piperidin-4-yl)amino)pyrimidine-2-carbonitrile]",600 to 10000
7,"N#Cc1nccc(N2CCN(Cc3ccc(-n4c(-c5cccnc5N)nc5ccc(-c6ccccc6Cl)nc54)cc3)CC2)n1 [Example 324, 4-(4-(4-(2-(2-Aminopyridin-3-yl)-5-(2-chlorophenyl)-3H-imidazo[4,5-b]pyridin-3-yl)benzyl)piperazin-1-yl)pyrimidine-2-carbonitrile]",< 15
8,"N#Cc1ccnc(N2CCN(Cc3ccc(-n4c(-c5cccnc5N)nc5ccc(-c6ccccc6Cl)nc54)cc3)CC2)n1 [Example 325, 2-(4-(4-(2-(2-Aminopyridin-3-yl)-5-(2-chlorophenyl)-3H-imidazo[4,5-b]pyridin-3-yl)benzyl)piperazin-1-yl)pyrimidine-4-carbonitrile]",15 to 60
9,"N#Cc1cc(N2CCN(Cc3ccc(-n4c(-c5cccnc5N)nc5ccc(-c6ccccc6Cl)nc54)cc3)CC2)ncn1 [Example 326, 6-(4-(4-(2-(2-Aminopyridin-3-yl)-5-(2-chlorophenyl)-3H-imidazo[4,5-b]pyridin-3-yl)benzyl)piperazin-1-yl)pyrimidine-4-carbonitrile]",15 to 60
10,"N#Cc1ncc(C(=O)N2CCN(Cc3ccc(-n4c(-c5cccnc5N)nc5ccc(-c6ccccc6)nc54)cc3)CC2)s1 [Example 327, 5-(4-(4-(2-(2-Aminopyridin-3-yl)-5-phenyl-3H-imidazo[4,5-b]pyridin-3-yl)benzyl)piperazine-1-carbonyl)thiazole-2-carbonitrile]",60 to 600
11,"N#Cc1ncnc(N2CCN(Cc3ccc(-n4c(-c5cccnc5N)nc5ccc(-c6ccccc6)nc54)cc3)CC2)n1 [Example 328, 4-(4-(4-(2-(2-aminopyridin-3-yl)-5-phenyl-3H-imidazo[4,5-b]pyridin-3-yl)benzyl)piperazin-1-yl)-1,3,5-triazine-2-carbonitrile]",< 15
12,"N#Cc1nccc(N2CCN(Cc3ccc(-n4c(-c5cccnc5N)nc5ccc(C6=CCCCC6)nc54)cc3)CC2)n1 [Example 329, 4-(4-(4-(2-(2-Aminopyridin-3-yl)-5-(cyclohex-1-en-1-yl)-3H-imidazo[4,5-b]pyridin-3-yl)benzyl)piperazin-1-yl)pyrimidine-2-carbonitrile]",15 to 60
13,"N#Cc1nccc(N2CCN(Cc3ccc(-n4c(-c5cccnc5N)nc5ccc(C6=CCOCC6)nc54)cc3)CC2)n1 [Example 330, 4-(4-(4-(2-(2-Aminopyridin-3-yl)-5-(3,6-dihydro-2H-pyran-4-yl)-3H-imidazo[4,5-b]pyridin-3-yl)benzyl)piperazin-1-yl)pyrimidine-2-carbonitrile]",< 15
14,"N#Cc1cccc(-c2ccc3nc(-c4cccnc4N)n(-c4ccc(CN5CCN(c6ccnc(C#N)n6)CC5)cc4)c3n2)c1 [Example 331, 4-(4-(4-(2-(2-Aminopyridin-3-yl)-5-(3-cyanophenyl)-3H-imidazo[4,5-b]pyridin-3-yl)benzyl)piperazin-1-yl)pyrimidine-2-carbonitrile]",< 15

# Same assay, conditions: competitive tracer displacement in living cells, read-out: AKT1 E17K IC50
row,IC50 [nM],Compound
1,15 to 60,"N#Cc1cc(NC2CCN(Cc3ccc(-n4c(-c5cccnc5N)nc5ccc(-c6ccccc6F)nc54)cc3)CC2)ncn1 [Example 315, 6-((1-(4-(2-(2-Aminopyridin-3-yl)-5-(2-fluorophenyl)-3H-imidazo[4,5-b]pyridin-3-yl)benzyl)piperidin-4-yl)amino)pyrimidine-4-carbonitrile]"
2,< 15,"N#Cc1nccc(NC2CCN(Cc3ccc(-n4c(-c5cccnc5N)nc5ccc(-c6ccccc6F)nc54)cc3)CC2)n1 [Example 316, 4-((1-(4-(2-(2-Aminopyridin-3-yl)-5-(2-fluorophenyl)-3H-imidazo[4,5-b]pyridin-3-yl)benzyl)piperidin-4-yl)amino)pyrimidine-2-carbonitrile]"
3,60 to 600,"N#Cc1nccc(N2CCN(Cc3ccc(-n4c(-c5cccnc5N)nc5ccc(N6CCCNC(=O)C6)nc54)cc3)CC2)n1 [Example 317, 4-(4-(4-(2-(2-Aminopyridin-3-yl)-5-(3-oxo-1,4-diazepan-1-yl)-3H-imidazo[4,5-b]pyridin-3-yl)benzyl)piperazin-1-yl)pyrimidine-2-carbonitrile]"
